Laboratory results taken from patent US9023821B2, “Use of MicroRNA for treating diseases associated with a dysfunction of the cilia in multiciliated epithelial cells” (Centre National de la Recherche Scientifique, priority 2009, dated 2015).

Columns and labels:
[1] = tested on: human airway epithelial cells (HAECs); experiment: High-throughput sequencing (HTS) of miRNAs at four stages of differentiation of HAECs; conditions: for Modulation (ratio of the level of intensity of expression in log2 in two stages of differentiation) measured by high-throughput sequencing, D7 − D0 / Modulation (ratio of the level of intensity of expression in log2 in two stages of differentiation) measured by high-throughput sequencing, FC − D7 / Modulation (ratio of the level of intensity of expression in log2 in two stages of differentiation) measured by high-throughput sequencing, WD − D0 / Modulation (ratio of the level of intensity of expression in log2 in two stages of differentiation) measured by high-throughput sequencing, WD − FC / Level of intensity of expression in log2 measured by high-throughput sequencing, D0 / Level of intensity of expression in log2 measured by high-throughput sequencing, D7 / Level of intensity of expression in log2 measured by high-throughput sequencing, FC / Level of intensity of expression in log2 measured by high-throughput sequencing, WD: Table VI; for Level of intensity of expression in log2 At the differentiated stage (WD) measured in HTS: healthy human airway epithelial tissue; for Level of intensity of expression in log2 measured by high-throughput sequencing, D0: stage D0; for Level of intensity of expression in log2 measured by high-throughput sequencing, D7: stage D7; for Level of intensity of expression in log2 measured by high-throughput sequencing, FC: stage FC; for Level of intensity of expression in log2 At the differentiated stage (WD) measured in HTS / Level of intensity of expression in log2 measured by high-throughput sequencing, WD: stage WD; for Abundance (%), D0: ALI-D0; for Abundance (%), D7: ALI-D7; for Abundance (%), FC: ALI-FC; for Abundance (%), WD: ALI-WD
How it was run: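 Total RNA including small RNAs was taken from air-liquid interface cultures at ALI-D0, ALI-D7, ALI-FC (first cilia, ~14 days) and ALI-WD (~21 days). SOLiD small-RNA libraries were sequenced, and 5p/3p reads were normalized to 10^6 sequences and expressed as percentage abundance.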

[2] = tested on: human airway epithelial cells (HAECs); experiment: Agilent miRNA chips, miRNA expression at four stages of differentiation of HAECs; conditions: for Modulation (ratio of the level of intensity of expression in log2 in two stages of differentiation) measured with the Agilent chips, D7 − D0 / Modulation (ratio of the level of intensity of expression in log2 in two stages of differentiation) measured with the Agilent chips, FC − D7 / Modulation (ratio of the level of intensity of expression in log2 in two stages of differentiation) measured with the Agilent chips, WD − D0 / Modulation (ratio of the level of intensity of expression in log2 in two stages of differentiation) measured with the Agilent chips, WD − FC / Level of intensity of expression in log2 measured with the Agilent chips, D0 / Level of intensity of expression in log2 measured with the Agilent chips, D7 / Level of intensity of expression in log2 measured with the Agilent chips, FC / Level of intensity of expression in log2 measured with the Agilent chips, WD: Table VI; for Modulation (ratio of the level of intensity of expression in log2 at two stages of differentiation), FC − D7 / Modulation (ratio of the level of intensity of expression in log2 at two stages of differentiation), WD − FC: Agilent miRNA chips, Table V; for Level of intensity of expression in log2 measured with the Agilent chips, D0: stage D0; for Level of intensity of expression in log2 measured with the Agilent chips, D7: stage D7; for Level of intensity of expression in log2 measured with the Agilent chips, FC: stage FC; for Level of intensity of expression in log2 measured with the Agilent chips, WD: stage WD
How it was run: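 Expression was profiled on Human miRNA Microarray v2 chips covering 866 human and 89 human viral miRNAs from miRBase v12.0. Labelled HAEC RNA came from the same patients used for sequencing and was hybridized per kit protocol. Chip and sequencing results were compared.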

[3] = tested on: basal cells and pyramidal cells of the airway epithelium; experiment: miRNA expression in sorted basal cells versus pyramidal cells (ciliated + secretory), HTS and Agilent chips; set-up: species or system human; conditions: for Modulation of expression of the miRNAs in pyramidal cells (323(−)) relative to basal cells 323(+): HTS and Agilent chips; for Intensity of the level of expression in log2 in pyramidal cells (323(−)): pyramidal cells (ciliated + secretory)
How it was run: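 miRNA repertoires measured by high-throughput sequencing or Agilent arrays on total RNA from sorted airway epithelial populations of 3 donors. Sorting used CD151-PE and anti-tissue factor-FITC: double-positive basal versus double-negative ciliated/secretory cells, with DAPI-stained and aggregated cells excluded.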

Substance	Modulation (ratio of the level of intensity of expression in log2 in two stages of differentiation) measured by high-throughput sequencing, D7 − D0 [1] [log2]	Modulation (ratio of the level of intensity of expression in log2 in two stages of differentiation) measured by high-throughput sequencing, FC − D7 [1] [log2]	Modulation (ratio of the level of intensity of expression in log2 in two stages of differentiation) measured by high-throughput sequencing, WD − D0 [1] [log2]	Modulation (ratio of the level of intensity of expression in log2 in two stages of differentiation) measured by high-throughput sequencing, WD − FC [1] [log2]	Level of intensity of expression in log2 At the differentiated stage (WD) measured in HTS [1] [log2]	Level of intensity of expression in log2 measured by high-throughput sequencing, D0 [1] [log2]	Level of intensity of expression in log2 measured by high-throughput sequencing, D7 [1] [log2]	Level of intensity of expression in log2 measured by high-throughput sequencing, FC [1] [log2]	Level of intensity of expression in log2 measured by high-throughput sequencing, WD [1] [log2]	Modulation (ratio of the level of intensity of expression in log2 in two stages of differentiation) measured with the Agilent chips, D7 − D0 [2] [log2]	Modulation (ratio of the level of intensity of expression in log2 in two stages of differentiation) measured with the Agilent chips, FC − D7 [2] [log2]	Modulation (ratio of the level of intensity of expression in log2 in two stages of differentiation) measured with the Agilent chips, WD − D0 [2] [log2]	Modulation (ratio of the level of intensity of expression in log2 in two stages of differentiation) measured with the Agilent chips, WD − FC [2] [log2]	Level of intensity of expression in log2 measured with the Agilent chips, D0 [2] [log2]	Level of intensity of expression in log2 measured with the Agilent chips, D7 [2] [log2]	Level of intensity of expression in log2 measured with the Agilent chips, FC [2] [log2]	Level of intensity of expression in log2 measured with the Agilent chips, WD [2] [log2]	Modulation of expression of the miRNAs in pyramidal cells (323(−)) relative to basal cells 323(+) [3]	Intensity of the level of expression in log2 in basal cells (323(+)) [3] [log2]	Intensity of the level of expression in log2 in pyramidal cells (323(−)) [3] [log2]	further results
hsa-miR-200a: human miRNA, SEQ ID No. 16 (UAACACUGUCUGGUAACGAUGU; expressed or natural sequence; listed as Homo sapiens)	1.00	0.67	2.20	0.54	10.96	9.02	10.01	10.68	11.22	1.94	0.20	2.20	0.06	8.64	10.58	10.79	10.84	−0.95	8.80	7.85	Modulation (ratio of the level of intensity of expression in log2 at two stages of differentiation), FC − D7 [2]: 0.20 log2; Modulation (ratio of the level of intensity of expression in log2 at two stages of differentiation), WD − FC [2]: 0.06 log2
hsa-miR-200b: human miRNA, SEQ ID No. 17 (UAAUACUGCCUGGUAAUGAUGA; expressed or natural sequence; listed as Homo sapiens)	0.76	0.56	2.36	1.03	10.64	8.60	9.37	9.93	10.96	2.01	−0.07	2.11	0.17	9.93	11.94	11.87	12.04	−0.15	9.99	9.84	Modulation (ratio of the level of intensity of expression in log2 at two stages of differentiation), FC − D7 [2]: −0.07 log2; Modulation (ratio of the level of intensity of expression in log2 at two stages of differentiation), WD − FC [2]: 0.17 log2
hsa-miR-203: human miRNA, SEQ ID No. 19 (GUGAAAUGUUUAGGACCACUAG; expressed or natural sequence; listed as Homo sapiens)	0.11	−0.21	1.08	1.18	14.55	13.50	13.60	13.39	14.57	0.97	−0.67	0.44	0.13	10.64	11.61	10.95	11.08	−3.50	3.64	0.14	Modulation (ratio of the level of intensity of expression in log2 in two stages of differentiation), D7 − D0 ([1]; HTS): 0.11 log2; Modulation (ratio of the level of intensity of expression in log2 in two stages of differentiation), FC − D7 ([1]; HTS): −0.21 log2; Modulation (ratio of the level of intensity of expression in log2 in two stages of differentiation), WD − FC ([1]; HTS): 1.18 log2; Abundance (%), D0 ([1]; HTS): 2.53%; Level of intensity of expression in log2, D0 ([1]; HTS, ALI-D0 (proliferation)): 13.49 log2; Abundance (%), D7 ([1]; HTS): 2.73%; Abundance (%), FC ([1]; HTS): 2.29%; Abundance (%), WD ([1]; HTS): 3.92%
hsa-miR-205: human miRNA, SEQ ID No. 20 (UCCUUCAUUCCACCGGAGUCUG; expressed or natural sequence; listed as Homo sapiens)	0.62	−1.12	−0.06	0.44	15.24	14.61	15.23	14.11	14.55	1.00	−0.72	−0.11	−0.39	13.18	14.18	13.46	13.07	−7.00	12.44	5.44	Modulation (ratio of the level of intensity of expression in log2 in two stages of differentiation), D7 − D0 ([1]; HTS): 0.62 log2; Modulation (ratio of the level of intensity of expression in log2 in two stages of differentiation), FC − D7 ([1]; HTS): −1.12 log2; Modulation (ratio of the level of intensity of expression in log2 in two stages of differentiation), WD − FC ([1]; HTS): 0.44 log2; Abundance (%), D0 ([1]; HTS): 5.48%; Abundance (%), D7 ([1]; HTS): 8.43%; Abundance (%), FC ([1]; HTS): 3.76%; Abundance (%), WD ([1]; HTS): 3.87%; cell type in which the miRNA is specifically expressed ([3]; sorted ciliated/pyramidal versus basal cells): more specific to the basal cells
